Laboratory results: ChEMBL document CHEMBL1155901, “Sialyl alpha(2-->3) lactose clusters using carbosilane dendrimer core scaffolds as influenza hemagglutinin blockers” (Bioorg Med Chem Lett, 2008)
The source made the active and inactive calls. The rule behind the calls is not given here.

Assays:
Type in all cases: functional, organism-based
Influenza A virus = assay: Inhibition of hemagglutinination in human influenza virus A/PR/8/34 (H1N1) infected in bovine erythrocytes; conditions: A/Puerto Rico/8/1934(H1N1)
Influenza A virus H3N2 [1] = assay: Inhibition of hemagglutinination in human influenza virus A/Aich/2/68 (H3N2) infected in bovine erythrocytes; conditions: Influenza A virus (A/Aichi/2/1968(H3N2))
Influenza A virus H3N2 [2] = assay: Inhibition of hemagglutinination in human influenza virus A/Memphis/1/71 (H3N2) infected in bovine erythrocytes; conditions: Influenza A virus (A/Memphis/1/1971(H3N2))

Structure (SMILES) | Activity (Influenza A virus) | Activity (Influenza A virus H3N2 [1]) | Activity (Influenza A virus H3N2 [2])
CC(=O)N[C@H]1[C@H]([C@H](O)[C@H](O)CO)O[C@@](O[C@H]2[C@@H](O)[C@@H](CO)O[C@H](O[C@H]3[C@H](O)[C@@H](O)[C@H](OCCCCCSCCCCCC(=O)NCCC[Si](CCCNC(=O)CCCCCSCCCCCO[C@@H]4O[C@H](CO)[C@@H](O[C@H]5O[C@H](CO)[C@H](O)[C@H](O[C@]6(C(=O)O)C[C@H](O)[C@@H](NC(C)=O)[C@H]([C@H](O)[C@H](O)CO)O6)[C@H]5O)[C@H](O)[C@H]4O)(CCCNC(=O)CCCCCSCCCCCO[C@@H]4O[C@H](CO)[C@@H](O[C@H]5O[C@H](CO)[C@H](O)[C@H](O[C@]6(C(=O)O)C[C@H](O)[C@@H](NC(C)=O)[C@H]([C@H](O)[C@H](O)CO)O6)[C@H]5O)[C@H](O)[C@H]4O)CCCNC(=O)CCCCCSCCCCCO[C@@H]4O[C@H](CO)[C@@H](O[C@H]5O[C@H](CO)[C@H](O)[C@H](O[C@]6(C(=O)O)C[C@H](O)[C@@H](NC(C)=O)[C@H]([C@H](O)[C@H](O)CO)O6)[C@H]5O)[C@H](O)[C@H]4O)O[C@@H]3CO)[C@@H]2O)(C(=O)O)C[C@@H]1O | Active | Active | –
C=CCCCO[C@@H]1O[C@H](CO)[C@@H](O[C@H]2O[C@H](CO)[C@H](O)[C@H](O[C@]3(C(=O)O)C[C@H](O)[C@@H](NC(C)=O)[C@H]([C@H](O)[C@H](O)CO)O3)[C@H]2O)[C@H](O)[C@H]1O | Active | Active | –
CC(=O)N[C@H]1[C@H]([C@H](O)[C@H](O)CO)O[C@@](O[C@H]2[C@@H](O)[C@@H](CO)O[C@H](O[C@H]3[C@H](O)[C@@H](O)[C@H](OCCCCCSCCCCCC(=O)NCCC[Si](CCCNC(=O)CCCCCSCCCCCO[C@@H]4O[C@H](CO)[C@@H](O[C@H]5O[C@H](CO)[C@H](O)[C@H](O[C@]6(C(=O)O)C[C@H](O)[C@@H](NC(C)=O)[C@H]([C@H](O)[C@H](O)CO)O6)[C@H]5O)[C@H](O)[C@H]4O)(CCCNC(=O)CCCCCSCCCCCO[C@@H]4O[C@H](CO)[C@@H](O[C@H]5O[C@H](CO)[C@H](O)[C@H](O[C@]6(C(=O)O)C[C@H](O)[C@@H](NC(C)=O)[C@H]([C@H](O)[C@H](O)CO)O6)[C@H]5O)[C@H](O)[C@H]4O)c4ccccc4)O[C@@H]3CO)[C@@H]2O)(C(=O)O)C[C@@H]1O | Active | Active | –
CC(=O)N[C@H]1[C@H]([C@H](O)[C@H](O)CO)O[C@@](O[C@H]2[C@@H](O)[C@@H](CO)O[C@H](O[C@H]3[C@H](O)[C@@H](O)[C@H](OCCCCCSCCC[Si](CCCSCCCCCO[C@@H]4O[C@H](CO)[C@@H](O[C@H]5O[C@H](CO)[C@H](O)[C@H](O[C@]6(C(=O)O)C[C@H](O)[C@@H](NC(C)=O)[C@H]([C@H](O)[C@H](O)CO)O6)[C@H]5O)[C@H](O)[C@H]4O)(CCCSCCCCCO[C@@H]4O[C@H](CO)[C@@H](O[C@H]5O[C@H](CO)[C@H](O)[C@H](O[C@]6(C(=O)O)C[C@H](O)[C@@H](NC(C)=O)[C@H]([C@H](O)[C@H](O)CO)O6)[C@H]5O)[C@H](O)[C@H]4O)c4ccccc4)O[C@@H]3CO)[C@@H]2O)(C(=O)O)C[C@@H]1O | Active | Active | –
CC(=O)N[C@H]1[C@H]([C@H](O)[C@H](O)CO)O[C@@](O[C@H]2[C@@H](O)[C@@H](CO)O[C@H](O[C@H]3[C@H](O)[C@@H](O)[C@H](OCCCCCSCCCCCC(=O)NCCC[Si](CCCNC(=O)CCCCCSCCCCCO[C@@H]4O[C@H](CO)[C@@H](O[C@H]5O[C@H](CO)[C@H](O)[C@H](O[C@]6(C(=O)O)C[C@H](O)[C@@H](NC(C)=O)[C@H]([C@H](O)[C@H](O)CO)O6)[C@H]5O)[C@H](O)[C@H]4O)(CCCNC(=O)CCCCCSCCCCCO[C@@H]4O[C@H](CO)[C@@H](O[C@H]5O[C@H](CO)[C@H](O)[C@H](O[C@]6(C(=O)O)C[C@H](O)[C@@H](NC(C)=O)[C@H]([C@H](O)[C@H](O)CO)O6)[C@H]5O)[C@H](O)[C@H]4O)CCC[Si](C)(C)CCC[Si](CCCNC(=O)CCCCCSCCCCCO[C@@H]4O[C@H](CO)[C@@H](O[C@H]5O[C@H](CO)[C@H](O)[C@H](O[C@]6(C(=O)O)C[C@H](O)[C@@H](NC(C)=O)[C@H]([C@H](O)[C@H](O)CO)O6)[C@H]5O)[C@H](O)[C@H]4O)(CCCNC(=O)CCCCCSCCCCCO[C@@H]4O[C@H](CO)[C@@H](O[C@H]5O[C@H](CO)[C@H](O)[C@H](O[C@]6(C(=O)O)C[C@H](O)[C@@H](NC(C)=O)[C@H]([C@H](O)[C@H](O)CO)O6)[C@H]5O)[C@H](O)[C@H]4O)CCCNC(=O)CCCCCSCCCCCO[C@@H]4O[C@H](CO)[C@@H](O[C@H]5O[C@H](CO)[C@H](O)[C@H](O[C@]6(C(=O)O)C[C@H](O)[C@@H](NC(C)=O)[C@H]([C@H](O)[C@H](O)CO)O6)[C@H]5O)[C@H](O)[C@H]4O)O[C@@H]3CO)[C@@H]2O)(C(=O)O)C[C@@H]1O | Active | Active | Active
CC(=O)N[C@H]1[C@H]([C@H](O)[C@H](O)CO)O[C@@](O[C@H]2[C@@H](O)[C@@H](CO)O[C@H](O[C@H]3[C@H](O)[C@@H](O)[C@H](OCCCCCSCCC[Si](CCCSCCCCCO[C@@H]4O[C@H](CO)[C@@H](O[C@H]5O[C@H](CO)[C@H](O)[C@H](O[C@]6(C(=O)O)C[C@H](O)[C@@H](NC(C)=O)[C@H]([C@H](O)[C@H](O)CO)O6)[C@H]5O)[C@H](O)[C@H]4O)(CCCSCCCCCO[C@@H]4O[C@H](CO)[C@@H](O[C@H]5O[C@H](CO)[C@H](O)[C@H](O[C@]6(C(=O)O)C[C@H](O)[C@@H](NC(C)=O)[C@H]([C@H](O)[C@H](O)CO)O6)[C@H]5O)[C@H](O)[C@H]4O)CCCSCCCCCO[C@@H]4O[C@H](CO)[C@@H](O[C@H]5O[C@H](CO)[C@H](O)[C@H](O[C@]6(C(=O)O)C[C@H](O)[C@@H](NC(C)=O)[C@H]([C@H](O)[C@H](O)CO)O6)[C@H]5O)[C@H](O)[C@H]4O)O[C@@H]3CO)[C@@H]2O)(C(=O)O)C[C@@H]1O | Active | Active | –
CC(=O)N[C@H]1[C@H]([C@H](O)[C@H](O)CO)O[C@@](O[C@H]2[C@@H](O)[C@@H](CO)O[C@H](O[C@H]3[C@H](O)[C@@H](O)[C@H](OCCCCCSCCC[Si](CCCSCCCCCO[C@@H]4O[C@H](CO)[C@@H](O[C@H]5O[C@H](CO)[C@H](O)[C@H](O[C@]6(C(=O)O)C[C@H](O)[C@@H](NC(C)=O)[C@H]([C@H](O)[C@H](O)CO)O6)[C@H]5O)[C@H](O)[C@H]4O)(CCCSCCCCCO[C@@H]4O[C@H](CO)[C@@H](O[C@H]5O[C@H](CO)[C@H](O)[C@H](O[C@]6(C(=O)O)C[C@H](O)[C@@H](NC(C)=O)[C@H]([C@H](O)[C@H](O)CO)O6)[C@H]5O)[C@H](O)[C@H]4O)CCC[Si](C)(C)CCC[Si](CCCSCCCCCO[C@@H]4O[C@H](CO)[C@@H](O[C@H]5O[C@H](CO)[C@H](O)[C@H](O[C@]6(C(=O)O)C[C@H](O)[C@@H](NC(C)=O)[C@H]([C@H](O)[C@H](O)CO)O6)[C@H]5O)[C@H](O)[C@H]4O)(CCCSCCCCCO[C@@H]4O[C@H](CO)[C@@H](O[C@H]5O[C@H](CO)[C@H](O)[C@H](O[C@]6(C(=O)O)C[C@H](O)[C@@H](NC(C)=O)[C@H]([C@H](O)[C@H](O)CO)O6)[C@H]5O)[C@H](O)[C@H]4O)CCCSCCCCCO[C@@H]4O[C@H](CO)[C@@H](O[C@H]5O[C@H](CO)[C@H](O)[C@H](O[C@]6(C(=O)O)C[C@H](O)[C@@H](NC(C)=O)[C@H]([C@H](O)[C@H](O)CO)O6)[C@H]5O)[C@H](O)[C@H]4O)O[C@@H]3CO)[C@@H]2O)(C(=O)O)C[C@@H]1O | Active | Active | –
